Test results: PMC8308721 (Pharmaceutics, 2021)
Entries after “also recorded” stand apart in the source; their conditions may differ.

How the values were obtained:
[1] = pooled mouse dipotassium ethylenediaminetetraacetic acid containing pooled plasma; conditions: 37 °C, up to 300 min
[2] = plasma; conditions: cited from earlier work
[3] = Peptide stability in mouse plasma (UPLC); type: in vitro ADME; conditions: CD-1 mouse plasma, 37 °C, 1 h; esters recovered as the corresponding acid
Procedure: The in vitro stability of peptides was assessed according to a previously described protocol with modifications. Peptides (3 g/L, 49 µL) dissolved in […] (DMSO/TWEEN 80/normal saline (5/5/90, v/v/v) were diluted with pooled mouse dipotassium ethylenediaminetetraacetic acid containing pooled plasma (Innovative Research, Novi, MI, USA) or pooled human cerebrospinal fluid (CSF) (both BioIVT, Westbury, NY, USA) to a total volume of 500 µL. The final peptide concentration was kept constant at 315 µmol/L in all experiments. The mixture was incubated (37 °C, 750 rpm; Thermomixer, Eppendorf AG, Hamburg, Germany) and an aliquot (95 µL) was taken at 0, 5, 15, 60, and 300 min. For peptide quantification, the sample was mixed with aqueous acetonitrile (90%, v/v, 300 µL) containing FA, 0.1% v/v and incubated on ice for 30 min. After two centrifugation steps (21,100× g, 3 min, Sorvall Legend Micro 21R Centrifuge, Thermo Scientific, Waltham, MA, USA), the supernatant (300 µL) was collected, freeze-dried (FreeZone Triad Cascade Benchtop, Labcono, Kansas City, MO, USA), reconstituted in aqueous acetonitrile (4.5%, v/v) containing FA (0.1%, v/v), and stored at −20 °C. Samples were analyzed by ultra-performance liquid chromatography (UPLC).
An ACQUITY UPLC H-Class chromatography system (Waters, Milford, MA, USA) coupled on-line to a photodiode array detector (absorbance recorded at 214 nm, Waters) and to the electrospray ionization source on a mass spectrometer (QDa detector, Waters) operated in the positive ion mode was used. Separation relied on a BEH-C18 column (inner diameter: 1.1 mm; length: 50 mm; particle size: 1.7 µm, Waters) at a flow rate of 0.1 mL/min using a linear aqueous acetonitrile gradient in the presence of FA (0.1%, v/v). Ionization was carried out at a source temperature of 450 °C using a cone voltage of 10 V and a capillary voltage of 1.5 kV. Mass spectra were typically acquired for an m/z range from 50 to 1250 at a sampling rate of 2 points per second. Quantities of the degraded peptides and resulting metabolites were estimated using peak areas of the UV signal at 214 nm relative to the initial peak areas (t = 0). Metabolites were identified using mass spectrometry by detecting the singly charged molecular ions.

[4] = system: female CD-1 mice; test: Hot-plate test; type: in vivo, mouse; conditions: s.c. 20 µmol/kg (~13 mg/kg), hot-plate, female CD-1 mice
Procedure: Animal use and procedures were in accordance with the guidelines of The University of British Columbia animal care committee and the Canadian Council for Animal Care (CCAC, Protocol code: A17-0128, approval date: 30 August 2018). Experiments involved adult female CD-1 mice (25–30 g) housed under a 12 h light/dark cycle and had ad libitum access to rodent chow and water. Mice were allowed an acclimatization period of at least one week in the animal facility before experiments. Subcutaneous (s.c.) or intraperitoneal (i.p.) injections of drugs or vehicles were administered to animals at a volume of 10 mL/kg. In the formalin foot assay, each mouse was used once and euthanized immediately upon completion of the experiment due to irreversible tissue damage in the injected paw.
A commercially available hot-plate analgesia meter consisting of a round aluminum surface with (25 cm diameter) from Harvard Apparatus (Holliston, MA, USA) was used. A day before the experiment mice were acclimatized for 5 min in a transparent Plexiglas cylinder (height, 30 cm; diameter, 25 cm) on the switched-off hot-plate apparatus. Thereafter, the baseline latency of each animal was measured on the hot surface (52.0 ± 0.1 °C, 30 s cut-off time to prevent tissue damage) until a nociceptive response was induced. The animal was immediately removed from the hot surface after licking, lifting, or fluttering of the hind paws was observed. Latency responses after treatment were obtained in the same way. The %MPE for each animal was calculated using this equation: %MPE = (LR − BR)/(MR − BR)100%, where LR, MR, and BR represent measured, maximum (30 s), and baseline (~5 s) response time, respectively. The AUC for each animal was calculated from the %MPE time courses using this equation: AUC = (%MPE(Tp1) + %MPE(Tp2))·(Tp2 − Tp1)/2, where Tp represents the time interval between adjacent time points on the curve. Data were plotted as mean ± SEM.

[5] = target: T1, human DOR (Homo sapiens, UniProt P41143); test: Competitive radioligand ([3H]DADLE) displacement assay at DOR; type: binding; conditions: analog at 6 nM
T1 construct: host or cells: COS-1 cells
T1 sequence (P41143 whole entry): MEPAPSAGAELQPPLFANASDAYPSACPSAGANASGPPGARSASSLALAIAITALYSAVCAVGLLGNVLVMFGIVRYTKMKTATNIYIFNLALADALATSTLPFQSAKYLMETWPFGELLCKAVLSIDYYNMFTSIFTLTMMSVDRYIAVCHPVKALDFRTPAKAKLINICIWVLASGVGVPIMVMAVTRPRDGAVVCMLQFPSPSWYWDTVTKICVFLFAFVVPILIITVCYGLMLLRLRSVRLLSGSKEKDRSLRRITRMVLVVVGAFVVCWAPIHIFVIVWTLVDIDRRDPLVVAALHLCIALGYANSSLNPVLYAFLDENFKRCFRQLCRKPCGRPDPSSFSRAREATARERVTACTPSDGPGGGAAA
Procedure: The binding affinity of peptides to the DOR was performed by Eurofins Cerep SA (Celle-Lévescault, France) using a competitive radioligand displacement assay according to a previously described method.

Row | Molecule | Recovered Peptide after 1 h in Mouse Plasma [%] [3] [%] | Antinociception (AUC0-5h, %MPE·h) [4] [%MPE·h] | further results
1 | H2N-YGGFL-COOH | – | – | fragment found [1]: H2N-GGFL-COOH, major; also recorded: H2N-FL-COOH, major; cleaved bond [2]: Tyr-Gly, first_seen; also recorded: Gly-Phe
2 | C=CCCC(=O)N[C@@H](Cc1ccc(O)cc1)C(=O)NCC(=O)NCC(=O)N[C@@H](Cc1ccccc1)C(=O)N[C@@H](CC(C)C)C(=O)OC [KK-105] | 80 ± 7 | – | –
3 | CCCCCC(=O)N[C@@H](Cc1ccc(O)cc1)C(=O)NCC(=O)NCC(=O)N[C@@H](Cc1ccccc1)C(=O)N[C@@H](CC(C)C)C(=O)OC [KK-93] | 85 ± 7 | 51 ± 13 | –
4 | CCCCCCCC(=O)N[C@@H](Cc1ccc(O)cc1)C(=O)NCC(=O)NCC(=O)N[C@@H](Cc1ccccc1)C(=O)N[C@@H](CC(C)C)C(=O)OC [KK-108] | 73 ± 4 | 48 ± 15 | –
5 | COC(=O)[C@H](CC(C)C)NC(=O)[C@H](Cc1ccccc1)NC(=O)CNC(=O)CNC(=O)[C@H](Cc1ccc(O)cc1)NC(C)=O [KK-14] | 82 ± 5 | – | –
6 | COC(=O)[C@H](CC(C)C)NC(=O)[C@H](Cc1ccccc1)NC(=O)CNC(=O)CNC(=O)[C@H](Cc1ccc(O)cc1)NC(=O)Cc1ccccc1 [KK-81] | 88 ± 7 | – | Relative Binding to DOR Compared to Leu-ENK [%] [5]: 41 ± 25%
